One compound from the NIST ThermoML archive (doi:10.1016/j.jct.2007.11.006) can be followed below.

± gives the expanded uncertainty stated by the source.

Series [1] is described as follows: Molar enthalpy of transition or fusion. The note with it: Crystal; DSC.
A short description of series [2]: molar enthalpy of vaporization or sublimation. The note with it: 298.15 K; Crystal; Drop sublimation at initial T = 411 K and adjusted to 298.15 K.
For series [3] the following is noted: Crystal.

The term mass density denotes mass per unit of volume. On to `COc1cc(O)cc(OC)c1OC` [3,4,5-trimethoxyphenol], for which the “Molar enthalpy of transition or fusion” value in series [1] amounted to 7.63 ± 0.645 kcal/mol. The molar enthalpy in series [2] was determined as 29.9 ± 1.48 kcal/mol. Besides, the mass density in series [3] (298.1 K, 101.33 kPa, mass of pellet and dimensions) was 1080 ± 10 kg/m3. Also, in series [3] (DTA), the Normal melting temperature worked out at 147.02 ± 0.43 °C.
